Test [1] has as its target T1, α4β1 (Homo sapiens, UniProt P05556+P13612).
T1 construct: Ramos cells, (50 μL at 2×10^6/mL) labeled with 5 μM Calcein AM; endogenous in cells; host or cells: Ramos cells
In words: Ramos Cell Adhesion Assay (α4β1 Mediated Adhesion/VCAM-1). The following applies: Ramos cells adhering to recombinant hVCAM-1. The test is classed as cell-based. On the procedure: Ramos Cell Adhesion Assay (α4β1 Mediated Adhesion/VCAM-1)
Immulon 96 well plates (Dynex) were coated with 100 μL recombinant hVCAM-1 at 4.0 μg/mL in 0.05 M NaCO3 buffer pH 9.0 overnight at 4° C. (R&D Systems). Plates were washed 2 times in PBS with 1% BSA and blocked for 1 h@room temperature in this buffer. PBS was removed and compounds to be tested (50 μL) were added at 2× concentration. Ramos cells, (50 μL at 2×10^6/mL) labeled with 5 μM Calcein AM (Molecular Probes) for 1 h at 37° C., were added to each well and allowed to adhere for 1 h at room temperature. Plates were washed 4 × in PBS+1% BSA and cells were lysed for 15 minutes in 100 μL of 1 M Tris pH 8.0 with 1% SDS. The plate was read at 485 nm excitation and 530 nm emission.

In test [2] the target is T2, human α4β7 integrin (Homo sapiens, UniProt P13612+P26010).
T2 construct: expressed in transfected cells; host or cells: K562 cells, stably transfected
T2 sequence (P13612 34-1032): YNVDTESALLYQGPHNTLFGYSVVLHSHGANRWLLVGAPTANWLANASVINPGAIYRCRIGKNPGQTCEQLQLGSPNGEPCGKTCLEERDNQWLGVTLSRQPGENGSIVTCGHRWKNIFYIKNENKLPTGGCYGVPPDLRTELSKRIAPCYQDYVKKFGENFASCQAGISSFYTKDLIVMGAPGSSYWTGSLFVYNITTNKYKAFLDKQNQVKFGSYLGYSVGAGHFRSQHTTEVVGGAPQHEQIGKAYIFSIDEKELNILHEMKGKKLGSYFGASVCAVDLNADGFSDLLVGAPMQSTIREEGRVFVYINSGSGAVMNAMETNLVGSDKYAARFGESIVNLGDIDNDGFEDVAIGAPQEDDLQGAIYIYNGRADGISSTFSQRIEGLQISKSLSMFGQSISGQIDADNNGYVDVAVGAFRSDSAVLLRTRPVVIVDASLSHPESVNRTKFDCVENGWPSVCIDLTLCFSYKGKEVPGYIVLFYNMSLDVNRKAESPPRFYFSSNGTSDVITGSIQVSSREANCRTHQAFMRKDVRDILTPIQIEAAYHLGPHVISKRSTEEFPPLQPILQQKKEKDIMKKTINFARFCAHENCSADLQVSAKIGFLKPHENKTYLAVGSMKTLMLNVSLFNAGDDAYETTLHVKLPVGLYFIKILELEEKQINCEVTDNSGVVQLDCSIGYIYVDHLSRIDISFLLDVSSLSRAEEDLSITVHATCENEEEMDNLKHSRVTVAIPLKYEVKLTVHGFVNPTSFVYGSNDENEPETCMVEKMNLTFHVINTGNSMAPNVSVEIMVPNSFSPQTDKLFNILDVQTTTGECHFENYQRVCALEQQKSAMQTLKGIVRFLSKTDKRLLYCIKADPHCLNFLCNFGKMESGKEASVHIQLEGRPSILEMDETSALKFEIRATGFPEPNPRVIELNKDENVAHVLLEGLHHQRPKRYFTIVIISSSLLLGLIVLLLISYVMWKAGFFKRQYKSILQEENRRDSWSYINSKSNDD
T2 sequence (P26010 20-798): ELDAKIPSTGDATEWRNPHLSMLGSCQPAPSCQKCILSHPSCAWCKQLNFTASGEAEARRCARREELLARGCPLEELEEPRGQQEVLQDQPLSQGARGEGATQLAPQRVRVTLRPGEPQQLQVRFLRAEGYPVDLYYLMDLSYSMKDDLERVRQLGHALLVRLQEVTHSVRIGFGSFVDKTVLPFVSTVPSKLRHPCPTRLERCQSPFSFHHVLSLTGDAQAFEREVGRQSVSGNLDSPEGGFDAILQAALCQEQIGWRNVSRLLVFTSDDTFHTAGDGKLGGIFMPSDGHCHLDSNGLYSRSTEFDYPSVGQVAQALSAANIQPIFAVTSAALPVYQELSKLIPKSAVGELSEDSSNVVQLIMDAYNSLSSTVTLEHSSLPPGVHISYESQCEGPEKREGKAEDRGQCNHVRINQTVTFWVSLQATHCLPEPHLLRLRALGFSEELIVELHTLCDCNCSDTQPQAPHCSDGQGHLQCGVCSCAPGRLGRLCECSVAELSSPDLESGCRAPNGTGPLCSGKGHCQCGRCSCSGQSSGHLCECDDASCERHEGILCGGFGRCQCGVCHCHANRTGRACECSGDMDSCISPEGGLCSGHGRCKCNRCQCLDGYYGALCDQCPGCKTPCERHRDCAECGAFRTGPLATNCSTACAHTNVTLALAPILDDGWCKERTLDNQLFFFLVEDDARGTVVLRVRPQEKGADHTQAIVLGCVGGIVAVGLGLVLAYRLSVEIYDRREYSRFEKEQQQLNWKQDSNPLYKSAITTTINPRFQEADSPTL
Put plainly: α4β7-K562 Cell Adhesion Assay (α4β7 Mediated Adhesion/MAdCAM-1). It counts as cell-based. The following applies: K562 cells expressing human α4β7 adhering to FLAG-hMAdCAM-1, 1 mM Mn2+. As for the experimental part: α4β7-K562 Cell Adhesion Assay (α4β7 Mediated Adhesion/MAdCAM-1)
M2 anti-FLAG Antibody Coated 96-well plates (Sigma) were coated for 1 hour at 4° C. with 2-8 μL/well recombinant FLAG-hMAdCAM-1 contained in 100 μL of Dulbecco's PBS, pH 7.4, with 1% BSA and 1 mM Mn^2+ (PBS-BSA-Mn). Plates were washed once with PBS-BSA-Mn. Buffer was removed and compounds to be tested (50 μL) were added at 2× concentration. Stably transfected K562 cells expressing human α4β7 integrin, (50 μL at 2×10^6/mL) that had been labeled with 100 μg/mL carboxymethyl fluorescein diacetate succinimidyl ester (CFDA-SE; Molecular Probes) for 15 min at 37° C. were added to each well and allowed to adhere for 1 h at room temperature. Plates were washed 4× in PBS-BSA-Mn and then cells were lysed for 2 min by addtion of 100 μL of PBS without Ca^2+, Mg^2+ supplemented with 0.1 M NaOH. The plate was read on a 96-well fluorescent plate reader at 485 nm excitation and 530 nm emission.

pIC50: −log10 of the molar value.

T1 sequence (P05556 21-798, one chain of several): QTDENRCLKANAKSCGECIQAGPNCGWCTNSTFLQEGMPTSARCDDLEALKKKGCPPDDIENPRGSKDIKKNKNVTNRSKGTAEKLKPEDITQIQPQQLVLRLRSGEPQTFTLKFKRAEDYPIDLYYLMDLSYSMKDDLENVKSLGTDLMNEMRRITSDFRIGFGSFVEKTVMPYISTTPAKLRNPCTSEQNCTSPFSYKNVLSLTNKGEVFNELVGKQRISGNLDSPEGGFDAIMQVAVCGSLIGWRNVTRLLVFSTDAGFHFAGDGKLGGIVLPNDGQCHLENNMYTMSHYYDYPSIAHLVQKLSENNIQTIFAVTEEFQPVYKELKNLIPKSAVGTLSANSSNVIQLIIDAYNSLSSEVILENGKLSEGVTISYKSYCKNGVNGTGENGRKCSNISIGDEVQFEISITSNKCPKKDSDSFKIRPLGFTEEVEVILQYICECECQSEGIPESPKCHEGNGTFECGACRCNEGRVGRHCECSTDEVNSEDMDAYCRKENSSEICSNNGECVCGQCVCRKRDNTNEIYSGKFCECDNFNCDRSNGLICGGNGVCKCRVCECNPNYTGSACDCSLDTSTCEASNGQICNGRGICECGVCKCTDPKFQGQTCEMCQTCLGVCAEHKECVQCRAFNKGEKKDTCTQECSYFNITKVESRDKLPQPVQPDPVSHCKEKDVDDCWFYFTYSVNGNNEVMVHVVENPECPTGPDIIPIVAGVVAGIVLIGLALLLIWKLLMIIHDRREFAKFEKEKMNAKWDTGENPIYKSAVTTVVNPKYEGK

The pIC50 is the negative decadic logarithm of the IC50, by convention in mol/L. Regarding `COc1cnn(C)c(=O)c1-c1ccc(C[C@H](NC(=O)N2CCC(O)C2)C(=O)O)cc1` (mixture of isomers) [Cpd 6], the negative logarithm of the IC50 (pIC50) in test [1] was under 5.30; in test [2], 6.42.

For the molecule `COc1cnn(C)c(=O)c1-c1ccc(C[C@H](NC(=O)N2CCCCC2C)C(=O)O)cc1` (mixture of isomers) [Cpd 28], the values for the pIC50 in test [1] and in test [2] were 5.74 and 7.54, respectively.

Regarding `COc1cnn(C)c(=O)c1-c1ccc(C[C@H](NC(=O)N(Cc2cccnc2)C2CN3CCC2CC3)C(=O)O)cc1` (mixture of isomers) [Cpd 40], the pIC50 is under 5.30 in test [1] and 6.00 in test [2]. In the case of `COc1cnn(C)c(=O)c1-c1ccc(C[C@H](NC(=O)N2c3ccccc3CC2C)C(=O)O)cc1` (mixture of isomers) [Cpd 49], the results for the pIC50 in test [1] and in test [2] were under 5.30 and 6.41, respectively. As to `COc1cnn(C)c(=O)c1-c1ccc(C[C@H](NC(=O)N2c3ccc(F)cc3CCC2C)C(=O)O)cc1` (mixture of isomers) [Cpd 53], the negative-log IC50 (pIC50) in test [1] is under 5.30; in test [2] it was 6.89. For `COc1cnn(C)c(=O)c1-c1ccc(C[C@H](NC(=O)N(C(C)C)C(C)C)C(=O)O)cc1` [Cpd 1, 2-(3,3-Diisopropyl-ureido)-3-[4-(5-methoxy-2-methyl-3-oxo-2,3-dihydro-pyridazin-4-yl)-phenyl]-propionic acid], the pIC50 in test [1] is under 6.00; in test [2], 6.91. The matching figures for `COc1cnn(CCO)c(=O)c1-c1ccc(C[C@H](NC(=O)Nc2c(Cl)cccc2Cl)C(=O)O)cc1` [Cpd 2]: 5.54 and 7.55.

As to `COc1cnn(CCO)c(=O)c1-c1ccc(C[C@H](NC(=O)NC2CCCCC2)C(=O)O)cc1` [Cpd 3], the pIC50 is under 5.30 in test [1] and 6.51 in test [2]. Regarding `COc1cnn(CCO)c(=O)c1-c1ccc(C[C@H](NC(=O)Nc2ccccc2F)C(=O)O)cc1` [Cpd 4], the pIC50 in test [1] is under 5.30; in test [2] it was 5.56. For the molecule `COc1cnn(C)c(=O)c1-c1ccc(C[C@H](NC(=O)N2CCN(C)CC2)C(=O)O)cc1` [Cpd 5], the negative logarithm of the IC50 (pIC50) in test [1] is under 5.30; in test [2], 6.33. Take `COc1cnn(C)c(=O)c1-c1ccc(C[C@H](NC(=O)NCCO)C(=O)O)cc1` [Cpd 7]: the values for the negative-log IC50 (pIC50) in test [1] and in test [2] were under 5.30 and 6.10, respectively. On to `COc1cnn(C)c(=O)c1-c1ccc(CC(NC(=O)N2CCCC2CO)C(=O)O)cc1` (stereo not shown) [Cpd 8, 2-[(2-Hydroxymethyl-pyrrolidine-1-carbonyl)-amino]-3-[4-(5-methoxy-2-methyl-3-oxo-2,3-dihydro-pyridazin-4-yl)-phenyl]-propionic acid], for which the pIC50 was under 5.30 in test [1] and 6.47 in test [2]. `COc1cnn(C)c(=O)c1-c1ccc(C[C@H](NC(=O)NCc2ccccc2)C(=O)O)cc1` [Cpd 9]: the pIC50 in test [1] is under 5.30; in test [2] it was 6.43.

As to `COc1cnn(C)c(=O)c1-c1ccc(C[C@H](NC(=O)N(C)c2ccccc2)C(=O)O)cc1` [Cpd 10], the pIC50 in test [1] is under 5.30; in test [2], 7.20. As to `COc1cnn(C)c(=O)c1-c1ccc(C[C@H](NC(=O)N(C)C2CCCCC2)C(=O)O)cc1` [Cpd 11], the pIC50 in test [1] is under 5.30; in test [2], 7.28. For the molecule `COc1cnn(C)c(=O)c1-c1ccc(C[C@H](NC(=O)N(C)Cc2ccccc2)C(=O)O)cc1` [Cpd 12], the pIC50 in test [1] is under 5.30; in test [2], 6.22. On to `COc1cnn(C)c(=O)c1-c1ccc(C[C@H](NC(=O)N(C)CCO)C(=O)O)cc1` [Cpd 14], for which the results for the pIC50 in test [1] and in test [2] were under 5.30 and 7.03, respectively.

In test [2], `COc1cnn(C)c(=O)c1-c1ccc(C[C@H](NC(=O)N(C)C)C(=O)O)cc1` [Cpd 19] gave a pIC50 of 5.81. The same measure, in the same setting: with `COc1cnn(C)c(=O)c1-c1ccc(C[C@H](NC(=O)NC2CCCCC2)C(=O)O)cc1` [Cpd 20] the figure was 6.30; with `CCCN(C(=O)N[C@@H](Cc1ccc(-c2c(OC)cnn(C)c2=O)cc1)C(=O)O)c1ccccc1` [Cpd 50], 6.45.

Source of the values: patent US20050209232A1, “Pyridazinone ureas as antagonists of alpha4 integrins” (priority 2004, published 2005).
